According to US20230381205A1, “COMPOSITIONS AND METHODS FOR TREATING NEURONAL DISORDERS WITH CANNABINOIDS” (INMED PHARMACEUTICALS INC., priority 2020, published 2023):

Experiments:
BCL2 = test: Western blot of phosphorylated BCL2 (anti-apoptotic marker); type: cell-based, human; settings: Aβ1-42 insult alone, FIG. 10
Method: (§1) For Western blot analysis, control and the treated cells were harvested and lysed in cold lysis buffer (150 mM NaCl, 50 mM Tris-HCl, 1% Triton X-100, 0.1% SDS, 0.5% Sodium deoxycholate, and 1% protease-phosphatase inhibitor mixture). The supernatants were collected and protein concentrations were determined using Bio-Rad protein assay (Bio-Rad Laboratories). Whole cell lysates (10 μg) were subjected to 10% SDS-polyacrylamide electrophoresis and transferred to nitrocellulose membrane. The membranes were blocked with 5% skim milk in TBS-T (Tris-buffered saline with 0.05% Tween-20) for 1 h at RT and blotted overnight in the presence of monoclonal anti-mouse MAP2 (1:1000, Sigma, cat. no. M1406), Tau (1:1000, Invitrogen, cat. no. AHB0042), TUJI (1:5000, BioLegend, cat. no. MMS-435P), BAX (1:1000, Cell signaling, cat. no. 2772) and rabbit polyclonal total and phosphorylated BCL (1:1000, Cell signaling, antibodies #2827 and 2870). The membranes were washed and incubated for 1 h in RT with either horseradish peroxidase (HRP)-conjugated goat anti-mouse (1:2000) or goat anti-rabbit antibodies (1:2000) (Jackson Lab). The membranes were washed and developed using chemiluminescence detection kit (Millipore, Billerica, MA, USA) on Alpha Innotech FluorChem 8800. β-Actin or Vinculin was used as a loading control. […]

BAX = test: Western blot of BAX (pro-apoptotic marker); type: cell-based, human; settings: Aβ1-42 (5 μM) alone, FIG. 9
Method: as §1

[1] = system: differentiated SH-SY5Y cells; test: Confocal immunofluorescence of MAP2 and neurite morphology; type: cell-based, human; settings: Aβ1-42 at 5 μM alone, FIG. 16
Method: SH-SY5Y cells were differentiated with RA (10 μM) for 5 days as indicated.
Accordingly, the effect of CBGA on the expression of MAP-2 was tested.

[2] = system: differentiated SH-SY5Y human neuronal cells; test: MTT assay: cytotoxicity of the substance alone (primary screen, no added insult); type: cell-based; settings: for toxicity in primary screen / Cell Death (%) vs Vehicle Control: FIG. 1; for Cell Death (%) vs Vehicle Control: 15 μM, pre-screen
Method: (§2) Cell Culture and Differentiation: The SH-SY5Y human neuronal cell line was derived from neuroblastoma established from a metastatic bone tumor (patient with neuroblastoma). The cells were maintained in DMEM:F12 culture medium supplemented with 10% FBS and 1% Antibiotic-Antimycotic penicillin/streptomycin (growth medium) at 37° C. in a humidified atmosphere of 5% CO2. To induce neuronal differentiation of SH-SY5Y cells, culture media was replaced by a growth medium containing Retinoic Acid (RA) for 4-5 days at 37° C. in a humidified atmosphere of 5% CO2.
(§3) Compounds and Dosing Formulations: Selected cannabinoids: CBD, CBDA, CBC, CBG, CBGA, CBN, CBND and Δ^9-THC were procured from Cayman Chemicals and TRC. Ethanol (100%) was used as the solvent to prepare 1 and 10 mM stock solutions. Treatment concentrations for CBGA were prepared at 0.5 μM, 1.5 μM, 5 μM, 10 μM, 15 μM, 20 μM. Treatment concentrations for CBD, CBDA, CBC, CBN, CBND and Δ^9-THC were prepared at 0.5, 1.5, 5 and for CBG at 0.5 μM, 1.5 μM, 5 μM, 10 μM, 15 μM. Treatments were prepared directly in the control medium (DMEM:F12+5% FBS+1% Antibiotic-Antimycotic) by using appropriate stock solutions.
(§4) Evaluation of Cytotoxicity and Neuroprotection: Evaluation of cannabinoids neuroprotection and cytotoxicity on differentiated SH-SY5Y human neuronal cells was carried out by MTT (3-(4,5-dimethylthiazol-2-yl)-2,5-diphenyltetrazolium bromide) assay. Initially, cannabinoid cytotoxicity and neuroprotection were evaluated in a primary screen assay without the presence of cytotoxicity inducing insult agents. […] The Retinoic Acid (RA) differentiated SH-SY5Y neuronal cells were seeded onto 96-well plates (10,000 cells/well) in DMEM:F12 complete medium. Cells were differentiated for 4-5 days in the presence of RA.
(§5) MTT Assay: For the MTT assay, differentiated SH-SY5Y neuronal cells were treated with cannabinoids at various concentrations for 72 hrs in the presence of STSR at 75 nM, 100 nM, 150 nM and 200 nM or for 24 hrs in the presence of […] at 5 μM, respectively and processed to determine cytotoxicity. Briefly, 5 mg/mL of methylthiazolyldiphenyl-tetrazolium bromide (Sigma-Aldrich) stock solution was prepared in PBS. Following treatment of SH-SY5Y neuronal cells with cannabinoids for 72 hrs, the cells were incubated with 20 μL of MTT stock solution in 200 μL DMEM for 2 hrs at 37° C. Following subsequent washes with PBS, 200 μL of isopropanol was added to each well. The resulting change in color from dissolving formazan salt was immediately quantified using a spectrophotometer (BMG Labtech) at a wavelength of 570 nm. […] The results are illustrated in FIGS. 1-7.

[3] = system: differentiated SH-SY5Y human neuronal cells; test: MTT assay: neuroprotection from Staurosporin (STSR) induced cytotoxicity; type: cell-based; settings: for neuroprotection against STSR-induced cytotoxicity: 0.5 μM, 1.5 μM and 5 μM with STSR 75 nM, 72 hrs; for neuroprotection against STSR-induced cytotoxicity / Cell Death (%) vs STSR at 75 nM, significance: FIG. 3; for Cell Death (%) vs STSR at 75 nM, significance: 5 μM with STSR 75 nM, compared to STSR-alone, One-Way ANOVA
Method: as §2, §3, §4, §5

[4] = system: differentiated SH-SY5Y cells; test: Immunocytochemistry of TuJ1 and neuronal morphology; type: cell-based, human; settings: 5 μM, FIG. 14
Method: (§6) FIG. 14 Morphological characterization of CBGA, THC and CBN mediated changes in differentiated SH-SY5Y cells. SH-SY5Y cells were differentiated with RA (10 μM) for 5 days as indicated. (A) Representative confocal photomicrographs showing changes in the cellular distribution of Tuj1 in RA induced differentiated SH-SY5Y cells following treatment with CBGA, THC and CBN. (B) Histogram showing the effect of CBGA, CBN, THC on neurite length.

[5] = system: differentiated SH-SY5Y cells; test: Neurite length / neuritogenesis in differentiated SH-SY5Y cells; type: cell-based, human; settings: 24 hours post treatment, FIG. 14 (B)
Method: FIG. 12 provides representative photomicrographs illustrating CBGA mediated changes in neurite elongation and branching in differentiated SH-SY5Y cells in a dose dependent manner. […] FIG. 12 also provides a histogram showing gradual changes in neurite length following treatment with CBGA.
as §6

CB1R = test: Changes in CB1 receptor expression and translocation; type: cell-based; settings: CBGA 5 μM, 10 μM, dose-dependent; FIG. 11
Excerpt: FIG. 11 Changes in receptor expression.

[6] = system: differentiated SH-SY5Y human neuronal cells; test: MTT assay: neuroprotection from Aβ1-42 induced cytotoxicity; type: cell-based
Method: as §2, §3, §4, §5

[7] = system: differentiated SH SY5Y cells treated with Aβ1-42; test: Receptor antagonist study: reversal of CBGA mediated protection from Aβ toxicity; type: cell-based, human; settings: CB2 antagonist at 1.5 μM (lowest concentration tested), with CBGA + Aβ1-42, FIG. 8
Method: FIG. 8 illustrates the effect of a CB2 antagonist has on the reversal of CBGA mediated protection of Aβ toxicity. The CB2 antagonist […] has a more prominent effect on the reversal of CBGA mediated protection. […] CB2 antagonist has significant effect on the reversal of CBGA mediated protection at lower concentration. p<0.0001 for Aβ compared to vehicle control. p<0.0001 for all groups compared to CBGA ([…])+Aβ.

Compound	neuroprotection against STSR-induced cytotoxicity [3]	Cell Death (%) vs STSR at 75 nM, significance [3]	toxicity in primary screen ([2]; 5 μM to 15 μM)	Cell Death (%) vs Vehicle Control [2]	toxicity in primary screen ([2]; about 0.5 μM to 1.5 μM)	further results
Aβ1-42: Amyloid-beta (Aβ1-42) peptide, insult-inducing cytotoxic agent						BCL2 expression (BCL2): downregulation; BAX expression (BAX): induced upregulation; neurite morphology [1]: damaged neurite outgrowth; cytotoxicity ([2]; Aβ1-42 insult alone at 5 μM, 24 hrs, FIG. 7): 23-52%
C=C(C)[C@@H]1CCC(C)=C[C@H]1c1c(O)cc(CCCCC)cc1O [CBD, cannabidiol]	did not protect	statistically significant cytotoxicity	high levels of toxicity	promote cell death	high levels of toxicity	
C=C(C)[C@@H]1CCC(C)=C[C@H]1c1c(O)cc(CCCCC)c(C(=O)O)c1O [CBDA, cannabidiolic acid]			high levels of toxicity	promote cell death	high levels of toxicity	
CCCCCc1cc(O)c2c(c1)OC(C)(C)[C@@H]1CCC(C)=C[C@@H]21 [Δ9-THC, Δ^9-tetrahydrocannabinol]			high levels of toxicity	promote cell death	high levels of toxicity	neuronal morphology and neurite outgrowth, TuJ1 staining [4]: disrupted neuronal morphology and neurite outgrowth; neurite length [5]: significantly decreased the neurite length; CB1R expression and translocation (CB1R): did not alter the expression of CB1R
CCCCCc1cc(O)c(C/C=C(\C)CCC=C(C)C)c(O)c1 [CBG, cannabigerol]			high levels of toxicity	promote cell death		protection from STSR induced cytotoxicity ([3]; 5 μM, 10 μM and 15 μM with STSR 75 nM, FIG. 6): did not protect; Cell Death (%) vs STSR, significance ([3]; 15 μM with STSR 75 nM, p=0.0002, FIG. 6): statistically significant cytotoxicity; protection from Aβ1-42 induced insult ([6]; 1.5 μM, 5 μM and 10 μM with Aβ1-42 5 μM, FIG. 7): did not protect; cytotoxicity with Aβ1-42 ([6]; 10 μM with Aβ1-42 5 μM, p<0.0001, FIG. 7): significant cytotoxicity
CN[C@@H]1C[C@H]2O[C@@](C)([C@@H]1OC)n1c3ccccc3c3c4c(c5c6ccccc6n2c5c31)C(=O)NC4 [STSR, Staurosporin]						cell death ([2]; STSR 75 nM, 72 hrs, vs vehicle control, FIG. 2): ~34%; cell death ([2]; STSR 200 nM, 72 hrs, vs vehicle control, FIG. 2): ~66%; cell death ([2]; STSR-insult alone at 75 nM, FIG. 5): ~48%
Cc1ccc(Cn2nc(C(=O)N[C@@H]3C(C)(C)[C@@H]4CC[C@@]3(C)C4)cc2-c2ccc(Cl)c(C)c2)cc1 [SRI 14528, 5-(4-chloro-3-methylphenyl)-1-[(4-methylphenyl)methyl]-N-[(1S,2S,4R)-1,3,3-trimethylbicyclo[2.2.1]heptan-2-yl]-1H-pyrazole-3-carboxamide]						reversal of CBGA mediated neuroprotection [7]: completely reversed
C=C(C)c1ccc(C)cc1-c1c(O)cc(CCCCC)cc1O [CBND]	did not protect	statistically significant cytotoxicity	high levels of toxicity	promote cell death		
CCCCCc1cc(O)c2c(c1)OC(C)(C)c1ccc(C)cc1-2 [CBN, cannabinol]	did not protect	statistically significant cytotoxicity	high levels of toxicity	promote cell death		neuronal morphology and neurite outgrowth, TuJ1 staining [4]: loss of neurite outgrowth and elongation; neurite length [5]: significantly decreased the neurite length; CB1R expression and translocation (CB1R): did not alter the expression of CB1R
CCCCCc1cc(O)c2c(c1)OC(C)(CCC=C(C)C)C=C2 (stereo not drawn) [CBC, cannabichromene]			high levels of toxicity	promote cell death	high levels of toxicity	
